In ChEMBL document CHEMBL3580661, “Structure-Guided Design of Group I Selective p21-Activated Kinase Inhibitors” (J Med Chem, 2015):
In brackets after ≈: the same amount, converted by molar mass. Values belong to the compound of their own block, whether it stands above or below them.

Assays:
[1] = target: T1, Serine/threonine-protein kinase PAK 4 (Homo sapiens, UniProt O96013); assay: Inhibition of human PAK4
[2] = target: T2, Serine/threonine-protein kinase PAK 1 (Homo sapiens, UniProt Q13153); assay: Inhibition of PAK1 (unknown origin)
[3] = target: T1, Serine/threonine-protein kinase PAK 4; assay: Inhibition of human recombinant PAK4 kinase domain using coumarin/fluorescein-labeled FRET peptide as substrate assessed as substrate phosphorylation at Ser/Thr19 preincubated for 10 mins followed by ATP addition measured after 60 mins by Z'-LYTE assay
[4] = target: T2, Serine/threonine-protein kinase PAK 1; assay: Inhibition of human recombinant PAK1 kinase domain using coumarin/fluorescein-labeled FRET peptide as substrate assessed as substrate phosphorylation at Ser/Thr19 preincubated for 10 mins followed by ATP addition measured after 60 mins by Z'-LYTE assay
[5] = Drug metabolism in rat liver S9 fraction assessed as N-acetyltransferase-mediated metabolite formation by measuring parent compound level at 1 uM after 60 mins in presence of acetyl CoA, NADPH; assay type: ADME, subcellular; conditions: s9, 1 h
[6] = Metabolic stability in rat liver S9 fraction assessed as compound remaining at 1 uM measured at 60 mins in presence of NADPH; assay type: ADME, subcellular; conditions: read-out: Stability
Liver [7] = assay: Metabolic stability in rat liver S9 fraction at 1 uM after 60 mins in absence of NADPH; assay type: ADME; conditions: s9, 1 h
Liver [8] = assay: Metabolic stability in rat liver S9 fraction at 1 uM after 60 mins in presence of NADPH; assay type: ADME, subcellular; conditions: s9, 1 h
[9] = target: T2, Serine/threonine-protein kinase PAK 1; assay: Inhibition of PAK1 in human EBC1 cells assessed as inhibition of MEK phosphorylation at S298 after 2 hrs by HTRF assay; assay type: cell-based
Rattus norvegicus = assay: Plasma clearance in rat at 2.5 mg/kg, iv administered as bolus dose; assay type: ADME, organism-based; conditions: in vivo
[10] = Lipophilicity, log D of the compound; assay type: physicochemical; conditions: octanol/water
Hepatocyte = assay: Drug uptake in mouse hepatocytes; assay type: ADME, cell-based
[11] = Kinetic solubility of the compound; assay type: physicochemical; conditions: read-out: Kinetic_solubility
[12] = Apparent permeability across basolateral to apical side in MDCK cells; assay type: ADME, cell-based, Canis lupus familiaris; conditions: dog
[13] = Apparent permeability across apical to basolateral side in MDCK cells; assay type: ADME, cell-based, Canis lupus familiaris; conditions: dog
Mus musculus = assay: Plasma clearance in mouse at 2 mg/kg, iv administered as bolus dose; assay type: ADME, organism-based; conditions: in vivo
[14] = Drug metabolism in rat liver S9 fraction assessed as oxidative metabolite formation by measuring parent compound level at 1 uM measured over 60 mins in presence of NADPH; assay type: ADME, subcellular; conditions: s9, 1 h
[15] = Plasma clearance in rat at 2 mg/kg, iv administered as bolus dose; assay type: ADME, organism-based
[16] = Drug metabolism in rat liver S9 fraction assessed as N-acetyltransferase-mediated metabolite formation by measuring parent compound level at 1 uM after 80 mins in presence of acetyl CoA, NADPH; assay type: ADME, subcellular; conditions: s9, 80 min
[17] = Drug metabolism in rat liver S9 fraction assessed as glucuronide metabolite formation at 1 uM in presence of UDPGA; assay type: ADME, subcellular; conditions: s9, 1 µM
[18] = Lipophilicity, log D of the compound at pH 7.4; assay type: physicochemical; conditions: buffer
[19] = Drug metabolism in rat liver S9 fraction assessed as N-acetyltransferase-mediated metabolite formation at 1 uM measured over 60 mins in presence of acetyl CoA, NADPH; assay type: ADME, subcellular; conditions: s9, 1 h
[20] = Plasma protein binding in rat; assay type: ADME, cell-free; conditions: read-out: PPB (converted)
[21] = Plasma clearance in rat at 1 mg/kg, iv administered as bolus dose; assay type: ADME, organism-based
[22] = Oral bioavailability in rat at 5 mg/kg; assay type: ADME, organism-based; conditions: in vivo
Aurora kinase A = target: T3, Aurora kinase A (Homo sapiens, UniProt O14965); assay: Inhibition of aurora A (unknown origin)
T3 sequence (O14965 whole entry): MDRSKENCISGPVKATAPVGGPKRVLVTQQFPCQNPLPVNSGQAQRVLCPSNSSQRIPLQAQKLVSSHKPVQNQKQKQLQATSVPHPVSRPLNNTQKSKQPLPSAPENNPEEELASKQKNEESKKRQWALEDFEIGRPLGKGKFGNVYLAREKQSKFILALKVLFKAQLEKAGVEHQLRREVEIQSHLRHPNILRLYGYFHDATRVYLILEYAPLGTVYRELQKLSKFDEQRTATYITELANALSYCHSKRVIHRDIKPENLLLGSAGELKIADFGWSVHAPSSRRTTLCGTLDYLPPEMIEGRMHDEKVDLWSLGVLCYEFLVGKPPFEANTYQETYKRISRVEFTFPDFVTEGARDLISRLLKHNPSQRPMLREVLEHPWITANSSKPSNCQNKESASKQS

T1 sequence (O96013 whole entry): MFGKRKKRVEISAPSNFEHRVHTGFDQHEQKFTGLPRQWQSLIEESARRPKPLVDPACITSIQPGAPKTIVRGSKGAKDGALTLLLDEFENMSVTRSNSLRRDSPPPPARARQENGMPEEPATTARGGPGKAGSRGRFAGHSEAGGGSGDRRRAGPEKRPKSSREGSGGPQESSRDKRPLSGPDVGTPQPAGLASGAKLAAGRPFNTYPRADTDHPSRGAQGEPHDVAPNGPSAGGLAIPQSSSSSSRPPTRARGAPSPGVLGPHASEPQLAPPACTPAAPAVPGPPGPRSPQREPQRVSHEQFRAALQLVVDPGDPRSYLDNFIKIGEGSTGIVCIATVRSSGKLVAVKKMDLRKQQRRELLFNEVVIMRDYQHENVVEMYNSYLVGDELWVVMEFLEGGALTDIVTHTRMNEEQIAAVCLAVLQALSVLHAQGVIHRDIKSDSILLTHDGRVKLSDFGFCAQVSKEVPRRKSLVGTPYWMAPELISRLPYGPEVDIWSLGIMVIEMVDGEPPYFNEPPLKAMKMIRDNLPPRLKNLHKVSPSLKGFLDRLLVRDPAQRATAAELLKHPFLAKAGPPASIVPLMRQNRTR
T2 sequence (Q13153 whole entry, the tested form may be a part): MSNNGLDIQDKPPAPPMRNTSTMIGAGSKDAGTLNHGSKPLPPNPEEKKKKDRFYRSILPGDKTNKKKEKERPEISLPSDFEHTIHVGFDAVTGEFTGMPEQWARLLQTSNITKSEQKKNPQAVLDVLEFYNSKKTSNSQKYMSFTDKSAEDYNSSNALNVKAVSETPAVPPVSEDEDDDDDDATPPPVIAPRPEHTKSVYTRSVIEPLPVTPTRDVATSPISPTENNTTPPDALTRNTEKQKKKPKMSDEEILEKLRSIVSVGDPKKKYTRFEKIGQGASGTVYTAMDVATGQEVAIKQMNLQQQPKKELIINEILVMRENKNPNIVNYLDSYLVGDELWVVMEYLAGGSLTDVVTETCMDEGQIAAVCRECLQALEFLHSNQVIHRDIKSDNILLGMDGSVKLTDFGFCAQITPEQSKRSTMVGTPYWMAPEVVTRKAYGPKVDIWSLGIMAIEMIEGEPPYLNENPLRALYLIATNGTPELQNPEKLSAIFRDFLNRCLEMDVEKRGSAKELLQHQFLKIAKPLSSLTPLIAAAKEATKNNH

Structure (SMILES): N[C@@H]1[C@H]2CN(c3nc(Nc4cc(C5CC5)[nH]n4)c4sccc4n3)C[C@@H]12
Ki [1]: 0.002 µM
Ki [2]: 0.05 µM

Structure (SMILES): CC1CCN(c2nc(Nc3cc(C4CC4)n[nH]3)c3ccccc3n2)CC1
Ki [1]: 0.049 µM
Ki [2]: 0.1 µM

Structure (SMILES): CCCc1cc(Nc2nc(N3CCC(N)CC3)nc3ccsc23)n[nH]1
Ki [4]: 0.048 µM

Structure (SMILES): CC(C)c1cc(Nc2nc(N3CCC(N)CC3)nc3ccsc23)n[nH]1
Ki [4]: 0.033 µM

Structure (SMILES): NC1CCN(c2nc(Nc3cc(-c4ccccc4)[nH]n3)c3sccc3n2)CC1
Ki [4]: 0.66 µM

Structure (SMILES): NC1CCN(c2nccc(Nc3cc(C4CC4)[nH]n3)n2)CC1
Ki [3]: 0.283 µM
Ki [4]: 0.454 µM

Structure (SMILES): NC1CCN(c2cccc(Nc3cc(C4CC4)[nH]n3)n2)CC1
Ki [3]: 0.612 µM
Ki [4]: 0.561 µM

Structure (SMILES): N[C@H]1CC[C@H](CNc2nccc(Nc3cc(C4CC4)[nH]n3)n2)CC1
Stability (Liver [8]): Stable
IC50 [9]: 2.2 µM
clearance (Rattus norvegicus): 158 mL/min/kg
Ki [3]: 0.038 µM
Ki [4]: 0.026 µM
logD [10]: -0.2
Drug uptake (Hepatocyte): Active
Stability [5]: 69.3%
solubility kinetic [11]: 149 µM (≈ 48.9 µg/mL)
Stability (Liver [7]): Stable
Papp B→A [12]: 2 ×10⁻⁶ cm/s
Papp A→B [13]: 0.5 ×10⁻⁶ cm/s
clearance (Mus musculus): 83 mL/min/kg

Structure (SMILES): N[C@H]1CC[C@@H](CNc2nccc(Nc3cc(C4CC4)[nH]n3)n2)CC1
Ki [3]: 0.004 µM
Ki [4]: 0.021 µM

Structure (SMILES): Nc1ccc(CNc2nccc(Nc3cc(C4CC4)[nH]n3)n2)cn1
Ki [3]: 0.563 µM
Ki [4]: 0.138 µM
Stability [14]: 60%
clearance [15]: 122 mL/min/kg
Stability [16]: 50%
Drug metabolism [17]: metabolite_notdetected

Structure (SMILES): CNc1ccc(CNc2nccc(Nc3cc(C4CC4)[nH]n3)n2)cn1
Ki [3]: 0.61 µM
Ki [4]: 0.346 µM

Structure (SMILES): c1cc(Nc2cc(C3CC3)[nH]n2)nc(NCc2ccc3[nH]cnc3c2)n1
Drug metabolism [19]: metabolite_notdetected
Ki [3]: 0.961 µM
Ki [4]: 0.117 µM
logD [18]: 2.5
clearance [15]: 24.1 mL/min/kg

Structure (SMILES): Fc1c(CNc2nccc(Nc3cc(C4CC4)[nH]n3)n2)ccc2[nH]cnc12
Ki [3]: 1.11 µM
Ki [4]: 0.179 µM

Structure (SMILES): Clc1c(CNc2nccc(Nc3cc(C4CC4)[nH]n3)n2)ccc2[nH]cnc12
fraction unbound [20]: 0.002
clearance [21]: 6.4 mL/min/kg
IC50 [9]: 0.362 µM
Ki [3]: 0.455 µM
Ki [4]: 0.005 µM
Papp B→A [12]: 6.3 ×10⁻⁶ cm/s
Papp A→B [13]: 2.8 ×10⁻⁶ cm/s

More lines, now with the values ahead:

Ki [3]: 0.012 µM
Ki [4]: 0.022 µM
Stability [5]: < 1%
remaining at 1 h, 1 µM [6]: 51%
Stability (Liver [7]): Stable
Structure (SMILES): NC1CCN(c2nc(Nc3cc(C4CC4)[nH]n3)c3sccc3n2)CC1

Ki [4]: 0.179 µM
Structure (SMILES): Cc1cc(Nc2nc(N3CCC(N)CC3)nc3ccsc23)n[nH]1

Ki [4]: 0.033 µM
Structure (SMILES): CCc1cc(Nc2nc(N3CCC(N)CC3)nc3ccsc23)n[nH]1

Ki [4]: 0.018 µM
Structure (SMILES): NC1CCN(c2nc(Nc3cc(C4CCC4)[nH]n3)c3sccc3n2)CC1

Ki [3]: 0.045 µM
Ki [4]: 0.119 µM
Structure (SMILES): NC1CCN(c2nc(Nc3cc(C4CC4)[nH]n3)c3occc3n2)CC1

Ki [3]: 1.82 µM
Ki [4]: 4.39 µM
Structure (SMILES): NC1CCN(c2cc(Nc3cc(C4CC4)[nH]n3)ccn2)CC1

Ki [3]: 0.08 µM
Ki [4]: 0.245 µM
Structure (SMILES): c1cc(Nc2cc(C3CC3)[nH]n2)nc(NCC2CCNCC2)n1

Ki [3]: 0.1 µM
Ki [4]: 0.157 µM
Structure (SMILES): N[C@H]1CC[C@H](Nc2nccc(Nc3cc(C4CC4)[nH]n3)n2)CC1

Ki [3]: 0.907 µM
Ki [4]: 1.47 µM
Structure (SMILES): CN(C)c1ccc(CNc2nccc(Nc3cc(C4CC4)[nH]n3)n2)cn1

Ki [3]: 0.144 µM
Ki [4]: 0.027 µM
logD [18]: 3
clearance [15]: 30.1 mL/min/kg
Structure (SMILES): c1cc(Nc2cc(C3CC3)[nH]n2)nc(NCc2ccc3[nH]ccc3c2)n1

IC50 [9]: 0.12 µM
Ki [3]: 0.042 µM
Ki [4]: 0.031 µM
clearance [15]: 30 mL/min/kg
Structure (SMILES): C[C@H](Nc1nccc(Nc2cc(C3CC3)[nH]n2)n1)c1ccc2[nH]ccc2c1

Ki [3]: 1.66 µM
Ki [4]: 0.607 µM
Structure (SMILES): Cn1cnc2cc(CNc3nccc(Nc4cc(C5CC5)[nH]n4)n3)ccc21

Ki [3]: 1.9 µM
Ki [4]: 0.584 µM
Structure (SMILES): Cn1cnc2ccc(CNc3nccc(Nc4cc(C5CC5)[nH]n4)n3)cc21

fraction unbound [20]: 0.011
IC50 [9]: 0.281 µM
Ki [3]: 0.106 µM
Ki [4]: 0.012 µM
clearance [15]: 20.3 mL/min/kg
Papp B→A [12]: 6.8 ×10⁻⁶ cm/s
Papp A→B [13]: 0.9 ×10⁻⁶ cm/s
Structure (SMILES): C[C@H](Nc1nccc(Nc2cc(C3CC3)[nH]n2)n1)c1ccc2[nH]cnc2c1

fraction unbound [20]: 0.011
clearance [21]: 67 mL/min/kg
IC50 [9]: 0.11 µM
Ki [4]: 0.004 µM
Papp B→A [12]: 18 ×10⁻⁶ cm/s
bioavailability [22]: 12%
Papp A→B [13]: 1.9 ×10⁻⁶ cm/s
Structure (SMILES): CN(Cc1ccc2[nH]cnc2c1Cl)c1nccc(Nc2cc(C3CC3)[nH]n2)n1

fraction unbound [20]: 0.007
clearance [21]: 61 mL/min/kg
Ki (Aurora kinase A): 0.0053 µM
IC50 [9]: 0.085 µM
Ki [3]: 0.547 µM
Ki [4]: 0.005 µM
Papp B→A [12]: 11.1 ×10⁻⁶ cm/s
Papp A→B [13]: 7.4 ×10⁻⁶ cm/s
Structure (SMILES): CCN(Cc1ccc2[nH]cnc2c1Cl)c1nccc(Nc2cc(C3CC3)[nH]n2)n1

Ki [4]: 1.9 µM
Structure (SMILES): C[C@@H](Nc1nccc(Nc2cc(C3CC3)[nH]n2)n1)c1ccc2[nH]ccc2c1
